# Measured values published in PMC10463376, “Design, synthesis, in vitro anticancer, molecular docking and SAR studies of new series of pyrrolo[2,3-d]pyrimidine derivatives” (BMC Chemistry, 2023).
# Entries after “also recorded” stand apart in the source; their conditions may differ.
# What was measured:
# [1] = MTT assay, normal cell line BJ1; format: cell-based; conditions: human, at 100 μg/ml, read-out: MTT cell proliferation mortality assay (%) BJ1
# Description: All of the following steps were done in a sterile Laminar flow class II biosafety cabinet (Baker, SG406INT, Sanford, ME, USA). DMEM was used as a suspension medium for breast cancer (MCF7), colorectal cancer (HCT116), prostate cancer (PC3), liver cancer (HePG2), pancreatic cancer (PACA2) and lung cancer (A549), while normal cell line (BJ1) was suspended in DMEM-F12 medium. The selected cell lines were purchased from American Type Culture Collection (ATCC). The media were supplemented with a 1% antimycotic-antibiotic mixture (10,000 µg/ml streptomycin sulfate, 25 µg/ml Amphotericin B, and 10,000 U/ml Potassium Penicillin) and 1% L-glutamine. 10 × 10^4cells/well were seeded in 96 well microtiter plates and incubated for 24 h at 37 ℃ under 5% carbon dioxide using a water-jacketed Carbon dioxide incubator (Sheldon, SCO5A, OR, USA). […] After the incubation time of 72 h, the medium was removed. Afterward, 40 µl MTT salt ([…]) was added to each well and kept for 4 h under the same conditions of 37 °C and 5% carbon dioxide. Finally, 200 μl of 10% Sodium dodecyl sulfate (SDS) in deionized water was added to each well and incubated overnight at 37 °C. The step of SDS addition was done to stop the reaction and dissolve the formed formazan crystals. The absorbance was then measured at a wavelength of 595 nm and the reference wavelength was set at 620 nm using a microplate multi-well reader (Bio-Rad Laboratories Inc., model 3356, California, USA). […] A statistical significance analysis was determined between the samples and the negative control using an independent t-test by SPSS 11 program. Dimethyl sulfoxide (DMSO) was the vehicle that dissolved our synthesized compounds and its concentration in the cells was less than 0.2%. IC50 values were calculated using the GraphPad Prism 6 program. The degree of selectivity of the synthetic compounds was expressed as SI = IC50 of a pure compound in a normal cell line/IC50 of the same pure compound in the cancer cell line, where IC50 is the concentration of the compound required to kill 50% of the cells.
# [2] = test system: caspase 8; experiment: ELISA caspase 8 in MCF7 cells; format: cell-based, human; conditions: MCF7 cells treated with IC50; untreated control 3.99
# Description: (§1) Elisa assay was used to determine the concentrations of Human caspases-3, -8, Bax, and Bcl2 in PACA2- and A549-treated cells. Also, the concentrations of caspase-8, Bax, and Bcl2 in MCF7-treated cells were detected. The procedures were followed up according to the instructions described in the following kits; Invitrogen human Caspase-3 Elisa Kit, Catalog KHO1091, DRG® human Caspase-8 ELISA Kit, Catalog (EIA-4863), Human Bax ELISA Kit (ab199080) and Human Bcl-2 ELISA Kit (ab119506) respectively. Shortly, the protocol described in the above kits was as followed; at the beginning, all the reagents, samples and standards were prepared. 100 μl of samples or standard were micro pipetted to each well of micro-well strip and kept at room temperature for 2 h. After washing the micro-well strips three times with washing buffer, the prepared antibody (anti-rabbit-IgG-HRP) at a concentration of 100 μl was added to each well at room temperature for 1 h. Then, the micro-well strips were washed again three times. Afterward, the prepared tetramethyl-benzidine (TMB) solution (100 μl) was added to the micro-well strips and kept for 10 min. At last, about 50 μl of stop solution was pipetted to each well to inactivate the enzyme completely. The absorbance of all samples was measured at a wavelength of 460 nm and compared to that of the standard. Curve fitting software was used to plot a standard curve and the concentrations for the unknown samples were measured from the standard curve.
# [3] = test system: BAX; experiment: ELISA BAX in MCF7 cells; format: cell-based, human; conditions: MCF7 cells treated with IC50; untreated control 4.92
# Description: as §1
# [4] = test system: Bcl2; experiment: ELISA Bcl2 in MCF7 cells; format: cell-based, human; conditions: MCF7 cells treated with IC50; untreated control 14.37
# Description: as §1
# [5] = test system: MCF7 cells; experiment: Annexin V-FITC/PI apoptosis flow cytometry, MCF7; format: cell-based, human; conditions: for percentage of late apoptotic cells (Q1-UR) / percentage of necrotic cells (Q1-UL) / percentage of early apoptotic cells (Q1-LR): MCF7, 24 h, IC50; for percentage of late apoptotic cells (Q1-UR): control 0.41%; for percentage of necrotic cells (Q1-UL): control 1.01%; for percentage of early apoptotic cells (Q1-LR): control 7.8%; for induction of apoptotic death: MCF7 cells
# Method: The percentage of apoptotic cells was detected by using Annexin V-FITC kit catalog number (#K101-25). About 2X10^6 of MCF7 and Paca2 cells were washed in 500 µl of 1 × PBS. Then, the cells were centrifuged and the supernatant was discarded. The cells pellet were re-suspended in the annexin V incubation reagent. The annexin V incubation reagent contained 10 μl binding buffer (10 ×), 10 μl propidium iodide, 1 μl annexin V-FITC, and 79 μl deionized water. The cells were incubated in 100 μl annexin V incubation reagent for 15 min in the dark at room temperature. Finally, the apoptotic cell percentage was detected by flow cytometry using the FITC signal detector (usually FL-1) and PI staining by the phycoerythrin emission signal detector (usually FL-2).
# [6] = test system: P53; experiment: RT-qPCR P53 mRNA in MCF7; format: cell-based, human; conditions: MCF7, vs negative control
# Method: (§2) All of the extractions were conducted on ice with ice-cold reagents. Total RNA from the different cell lines was isolated using Trizol (Invitrogen; Life Technologies, USA) according to the method of Sthoeger et al.. The 260:280 ratios were measured to determine RNA quality after the isolation method was completed according to the manufacturer’s instructions. A high-capacity cDNA reverse transcription kit was used to produce complementary DNA (cDNA) (Applied Biosystems, USA). […] The relative gene expression method (i.e., ΔΔCT) was used to analyze the real-time PCR data, as explained in Applied Biosystem User Bulletin No. 2. Each sample and gene were normalized using the β-actin gene.
# [7] = test system: BAX; experiment: RT-qPCR BAX mRNA in MCF7; format: cell-based, human; conditions: MCF7, vs negative control
# Method: as §2
# [8] = test system: Bcl-2; experiment: RT-qPCR Bcl-2 mRNA in MCF7; format: cell-based, human; conditions: MCF7, vs negative control
# Method: as §2
# [9] = test system: CDK4; experiment: RT-qPCR CDK4 mRNA in MCF7; format: cell-based, human; conditions: MCF7, vs negative control
# Method: as §2
# [10] = test system: IL-8; experiment: RT-qPCR IL-8 mRNA in MCF7; format: cell-based, human; conditions: MCF7, vs negative control
# Method: as §2
# [11] = test system: DR4; experiment: RT-qPCR DR4 mRNA in MCF7; format: cell-based, human; conditions: MCF7, vs negative control
# Method: as §2
# [12] = test system: DR5; experiment: RT-qPCR DR5 mRNA in MCF7; format: cell-based, human; conditions: MCF7, vs negative control
# Method: as §2
# [13] = test system: Bcl-2; experiment: RT-qPCR Bcl-2 mRNA in Paca2; format: cell-based, human; conditions: 17 vs both Dox. and negative control
# Method: as §2
# [14] = test system: DR5; experiment: RT-qPCR DR5 mRNA in A549; format: cell-based, human
# Method: as §2
SMILES,"cytotoxicity at 72 h, 100 μg/ml [1] [%]",caspase 8 level (ELISA) [2] [pg/mL],BAX level (ELISA) [3] [pg/mL],Bcl2 level (ELISA) [4] [pg/mL],percentage of late apoptotic cells (Q1-UR) [5] [%],percentage of necrotic cells (Q1-UL) [5] [%],percentage of early apoptotic cells (Q1-LR) [5] [%],induction of apoptotic death [5],P53 mRNA level [6],BAX mRNA level [7],Bcl-2 mRNA level [8],CDK4 mRNA level [9],IL-8 mRNA level [10],DR4 mRNA level [11],DR5 mRNA level [12],Bcl-2 mRNA level [13],DR5 mRNA level [14]
"COc1ccc(-c2c(Cl)n(-c3ccc(Cl)cc3Cl)c3ncnc(N4CCOCC4)c23)cc1OC [Compound 18b, 4-(6-chloro-7-(2,4-dichlorophenyl)-5-(3,4-dimethoxyphenyl)-7H-pyrrolo[2,3-d]pyrimidin-4-yl)morpholine]",20.6 ± 2.1,10.29,7.25,9.24,0.89,0.76,20.63,induced the apoptotic death,significantly increased; also recorded: up-regulated,up-regulated,down-regulated,lowered; also recorded: down-regulated,lowered; also recorded: down-regulated,increased; also recorded: up-regulated,increased; also recorded: up-regulated,–,–
"COc1cccc2c1C(=O)c1c(O)c3c(c(O)c1C2=O)C[C@@](O)(C(=O)CO)C[C@@H]3O[C@H]1C[C@H](N)[C@H](O)[C@H](C)O1 [Dox, Doxorubicin, reference compound]",–,–,–,–,–,–,–,–,up-regulated,up-regulated,down-regulated,lowered,lowered,increased,increased,no significant difference,up-regulated
"CN1CCN(c2nc(C(Cl)(Cl)Cl)nc3c2c(-c2ccc(Br)cc2)c(Cl)n3-c2ccc(Cl)cc2Cl)CC1 [Compound 17, 5-(4-bromophenyl)-6-chloro-7-(2,4-dichlorophenyl)-4-(4-methylpiperazin-1-yl)-2-(trichloromethyl)-7H-pyrrolo[2,3-d]pyrimidine]",12.5 ± 1.7,–,–,–,–,–,–,–,–,–,–,–,–,–,–,down-regulated,–
"COc1ccc(-c2c(Cl)n(-c3ccc(Cl)cc3Cl)c3ncnc(N4CCN(C)CC4)c23)cc1OC [Compound 16b, 6-chloro-7-(2,4-dichlorophenyl)-5-(3,4-dimethoxyphenyl)-4-(4-methylpiperazin-1-yl)-7H-pyrrolo[2,3-d]pyrimidine]",–,14.72,13.25,4.25,1.7,0.96,11.49,induced the apoptotic death,up-regulated; also recorded: significantly increased,up-regulated,down-regulated,lowered,lowered,increased,increased,–,–
"COc1ccc(-c2c(Cl)n(-c3ccc(Cl)cc3Cl)c3ncnc(NN)c23)cc1OC [Compound 14b, 6-chloro-7-(2,4-dichlorophenyl)-5-(3,4-dimethoxyphenyl)-4-hydrazineyl-7H-pyrrolo[2,3-d]pyrimidine]",–,18.263,14.25,8.25,–,–,–,–,significantly increased; also recorded: up-regulated,up-regulated,down-regulated,lowered; also recorded: down-regulated,lowered; also recorded: down-regulated,increased; also recorded: up-regulated,increased; also recorded: up-regulated,–,–
"COc1ccc(-c2c(Cl)n(-c3ccc(Cl)cc3Cl)c3ncnc(Cl)c23)cc1OC [Compound 4b, 4,6-dichloro-7-(2,4-dichlorophenyl)-5-(3,4-dimethoxyphenyl)-7H-pyrrolo[2,3-d]pyrimidine]",22.5 ± 0.3,–,–,–,–,–,–,–,–,–,–,–,–,–,–,–,up-regulated
"NNc1ncnc2c1c(-c1ccc(Br)cc1)c(Cl)n2-c1ccc(Cl)cc1Cl [Compound 14a, 5-(4-bromophenyl)-6-chloro-7-(2,4-dichlorophenyl)-4-hydrazineyl-7H-pyrrolo[2,3-d]pyrimidine]",30.8 ± 0.2,8.76,9.99,2.4,–,–,–,–,significantly increased; also recorded: up-regulated,up-regulated,down-regulated,lowered; also recorded: down-regulated,lowered; also recorded: down-regulated,increased; also recorded: up-regulated,increased; also recorded: up-regulated,–,–
